The values that follow come from PubChem BioAssay (NCI).

The structures appear in SMILES notation. Several values for one entry are separate records, joined by “and”; a condition that tells them apart may be missing. Identical values can stand only once.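 Step 1: Grow cells in 96-well plates. Step 2: Expose to compound for 48 hours at 5 concentrations. Step 3: Interpolate endpoints linearly; if unreached, use highest concentration. The concentration for 50% growth inhibition is given as GI50. The concentration for full growth arrest is given as TGI.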

Assay in all cases: growth of human tumour cells (NCI), 48 h
The subject of assay [1] is HOP-62 NSCLC.
In assay [2] the test system is CCRF-CEM leukemia.
The subject of assay [3] is OVCAR-4 ovarian.
The test system of assay [4] is A549 NSCLC.
In assay [5] the test system is UO-31 renal.
The subject of assay [6] is SF-268 CNS.
In assay [7] the test system is SW-620 colon.
In assay [8] the test system is OVCAR-3 ovarian.

On to `CC(=O)OCC1OC(S[As](C)C)C(OC(C)=O)C1OC(C)=O` (stereo unspecified), for which the GI50 in assay [1] was 3.35 µM; in assay [2] it was 0.19 µM; in assay [3], 1.15 µM; in assay [4], 1.94 µM; in assay [5] it was 0.122 µM; in assay [6], 1.31 µM. For the same compound, the GI50 is 0.302 µM in assay [7] and 0.0391 µM in assay [8]. Besides, the TGI in assay [1] stood at 15.2 µM; in assay [2], 1.34 µM; in assay [3], 8.09 µM; in assay [4] it was 13.6 µM; in assay [5] it was 1.02 µM; in assay [6] it was 7.53 µM. In addition, the TGI stood at 1.47 µM in assay [7] and 0.151 µM in assay [8].
`COc1ccc(Nc2ccnc(NCCCNc3ccnc4cc(Cl)ccc34)n2)cc1`: the GI50 is 1.61 µM in assay [1]; 0.34 µM in assay [2]; 1.35 µM in assay [3]; 1.55 µM in assay [4]; 0.879 µM in assay [5]; 1.52 µM in assay [6]. The values for the GI50 in assay [7] and in assay [8] were 1.07 µM and 1.56 µM, respectively. Moreover, the TGI in assay [1] worked out at 4.44 µM; in assay [2], 1.8 µM; in assay [3] it was 6.22 µM; in assay [4], 3.66 µM; in assay [5], 2.18 µM; in assay [6] it was 3.77 µM. Besides, the TGI in assay [7] worked out at 2.56 µM; in assay [8] it was 3.24 µM.
On to `COC(=O)[C@@H](C)C[C@H](Cc1ccccc1)NC(=O)c1csc([C@@H](C[C@H](C(C)C)N(C)C(=O)[C@@H](NC(=O)[C@H]2CCCCN2C)C(C)C)OC(C)=O)n1`, for which the GI50 was 0.000396 µM and 0.0025 µM in assay [1]; 0.000425 µM and 0.0025 µM in assay [2]; 0.000457 µM and 0.0025 µM in assay [4]; 0.000932 µM and 0.0025 µM in assay [5]; 0.000671 µM and 0.0025 µM in assay [6]; < 0.0001 µM in assay [8]. The TGI in assay [1], in assay [2], in assay [3], in assay [4], in assay [5] and in assay [6] was > 25 µM each time. Also, the TGI in assay [7] is > 25 µM.
As to `NC(=O)Oc1cc(OC(N)=O)cc(N(CCCl)CCCl)c1`, the GI50 is 20.9 µM in assay [1]; 0.902 µM in assay [2]; 14.8 µM in assay [3]; 5.13 µM in assay [4]; 2.57 µM in assay [5]; 1.88 µM in assay [6]. The results for the GI50 in assay [7] and in assay [8] were 7.59 µM and 4.74 µM, respectively. Moreover, the TGI was > 100 µM in assay [1]; > 100 µM in assay [2]; 79.3 µM in assay [3]; 69 µM in assay [4]; 15.9 µM in assay [5]; 29.4 µM in assay [6]. For the same compound, the TGI in assay [7] was > 100 µM; in assay [8] it was 25.9 µM.
With `O=C1/C(=C/C(Cl)=C/c2ccccc2)SC(=S)N1CCc1ccc(O)cc1`, the GI50 was 3.15 µM in assay [1]; 0.441 µM in assay [2]; 3.19 µM in assay [3]; 2.85 µM in assay [4]; 1.29 µM in assay [5]; 2.6 µM in assay [6]. Also, the results for the GI50 in assay [7] and in assay [8] were 1.43 µM and 1.91 µM, respectively. The TGI in assay [1] was 12.2 µM; in assay [2], > 100 µM; in assay [3], 35.8 µM; in assay [4], > 100 µM; in assay [5] it was 2.69 µM; in assay [6], 10.3 µM. The TGI is 3.9 µM in assay [7] and 4.34 µM in assay [8].
With `CC(C)(O)[C@H]1[C@@H]2OC(=O)[C@H]1[C@]1(O)C[C@H]3OC34C(=O)O[C@H]2[C@@]41C` (stereo partly specified) (tested in a mixture with another compound), the TGI in assay [1], in assay [2], in assay [3], in assay [4], in assay [5] and in assay [6] was > 100 µM each time. The TGI in assay [7] and in assay [8] was > 100 µM throughout.
As to `Cc1ccc2sc3c(NCCCNCCO)nc4ccccc4c3c(=O)c2c1`, the GI50 in assay [1] was 1.27 µM; in assay [2] it was 1.35 µM; in assay [3], 1.64 µM; in assay [4], 1.78 µM; in assay [5], 1.28 µM; in assay [6], 1.57 µM. Besides, the GI50 is 1.62 µM in assay [7] and 1.75 µM in assay [8]. In addition, the TGI was 2.87 µM in assay [1]; 2.97 µM in assay [2]; 3.12 µM in assay [3]; 3.63 µM in assay [4]; 2.58 µM in assay [5]; 3.2 µM in assay [6]. In addition, the TGI in assay [7] was 3.13 µM; in assay [8], 3.26 µM.
